Results: patent US20120178738A1, “DIBENZO [B,F] [1,4]OXAZAPINE COMPOUNDS” (ARYX THERAPEUTICS, INC., priority 2007, published 2012)
Where two headings read alike, the source gives them in different places.

Columns and labels:
5-HT2A receptor = biological target: T1, 5-HT2A receptor (Rattus norvegicus, UniProt P14842); assay: cell-based
T1 construct: Eight strips of tissue (0.5 cm long) were cut. and were mounted in 10 ml organ baths; tissue Charles River Laboratories; host or cells: rat aorta strips, endothelium removed
T1 sequence (P14842 whole entry): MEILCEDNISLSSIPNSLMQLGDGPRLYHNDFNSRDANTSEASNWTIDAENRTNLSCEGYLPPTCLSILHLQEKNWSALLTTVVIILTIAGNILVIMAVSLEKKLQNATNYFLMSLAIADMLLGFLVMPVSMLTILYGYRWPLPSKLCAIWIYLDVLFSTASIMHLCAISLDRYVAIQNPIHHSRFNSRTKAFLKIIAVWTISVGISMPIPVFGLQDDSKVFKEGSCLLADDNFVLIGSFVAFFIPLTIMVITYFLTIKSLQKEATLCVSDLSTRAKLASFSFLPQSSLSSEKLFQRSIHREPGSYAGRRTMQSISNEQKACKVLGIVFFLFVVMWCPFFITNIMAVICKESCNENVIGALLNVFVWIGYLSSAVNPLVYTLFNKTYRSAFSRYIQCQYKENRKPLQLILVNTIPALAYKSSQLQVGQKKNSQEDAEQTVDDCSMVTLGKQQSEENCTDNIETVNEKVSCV
Procedure, shortened: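 Agonist EC50 and antagonist pKB or pA2 values come from curves fitted by Parker–Waud and from EC50 concentration-ratios with versus without antagonist. Tissue: rat aorta strips, endothelium removed, 37° C Krebs pH 7.4 with 95% O2/5% CO2, 2 g tension; response as % of 5-HT maximum.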

[1] = biological target: T2, human D2s dopamine receptors (Homo sapiens, UniProt P14416); assay: hD2S receptor radioligand binding ([3H]spiperone); settings: pKi reported on a scale of 1 through 5
T2 construct: expressed in transfected cells; host or cells: Chinese hamster ovary cells (membranes)
T2 sequence (P14416 1-414 isoform P14416-2): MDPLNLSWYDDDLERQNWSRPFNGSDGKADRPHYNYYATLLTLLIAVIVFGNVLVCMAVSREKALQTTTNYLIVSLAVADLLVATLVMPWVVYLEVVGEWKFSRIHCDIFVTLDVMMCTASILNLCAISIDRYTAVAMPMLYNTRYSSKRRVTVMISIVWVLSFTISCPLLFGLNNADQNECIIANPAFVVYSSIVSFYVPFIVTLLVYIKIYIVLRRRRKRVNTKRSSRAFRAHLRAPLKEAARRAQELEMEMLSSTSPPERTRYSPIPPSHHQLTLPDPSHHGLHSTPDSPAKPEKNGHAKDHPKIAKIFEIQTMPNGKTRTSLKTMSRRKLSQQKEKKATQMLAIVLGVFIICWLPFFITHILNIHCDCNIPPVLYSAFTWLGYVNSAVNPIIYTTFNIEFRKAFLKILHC
Procedure, shortened: (§1)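 Equilibrium competition against a fixed radioligand level, using membranes or tissues expressing the receptor and a concentration series of unlabelled compound. Binding was quantified from filtration-separated, nonspecific-corrected concentration-response relationships.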

[2] = biological target: T3, human D2L dopamine receptors (Homo sapiens, UniProt P14416); assay: hD2L receptor radioligand binding ([3H]spiperone)
T3 construct: expressed in transfected cells; host or cells: insect Sf9 cells (membranes)
T3 sequence (P14416 whole entry): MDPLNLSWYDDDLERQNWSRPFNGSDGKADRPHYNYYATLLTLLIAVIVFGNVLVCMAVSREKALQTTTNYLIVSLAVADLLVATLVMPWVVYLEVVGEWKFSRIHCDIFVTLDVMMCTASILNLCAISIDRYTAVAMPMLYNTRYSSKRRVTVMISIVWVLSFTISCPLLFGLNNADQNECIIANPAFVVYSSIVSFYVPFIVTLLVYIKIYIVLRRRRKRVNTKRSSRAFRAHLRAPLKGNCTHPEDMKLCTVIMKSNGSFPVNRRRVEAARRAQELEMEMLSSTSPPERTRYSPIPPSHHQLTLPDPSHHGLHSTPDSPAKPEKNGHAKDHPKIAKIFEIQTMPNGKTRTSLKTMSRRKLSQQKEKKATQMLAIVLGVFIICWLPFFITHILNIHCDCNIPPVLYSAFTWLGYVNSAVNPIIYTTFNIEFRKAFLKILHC
Procedure: (§2) Consistent with standard competition radioligand binding assays, the methodology was based on displacement of radioligand from tissues (or cell lines) bearing the receptor of interest (Cheng, Y. and Prusoff, W. H. (1973). Biochem. Pharmacol. 22, 3099-3108). The measurements were based on the binding of a single concentration of radiolabeled ligand in the presence of various concentrations of unlabeled ligand.
(§3) Tissues (or cellular plasma membrane fractions) were incubated in the presence of radioligand at equilibrium and in the presence of a range of concentrations of the test compounds (which were non-radiolabeled), and the displaced radioligand was separated from the membranes by filtration. Nonspecific binding was assessed by measuring displacement of the radioligand in the presence of a compound known to block binding of the radioligand to the receptor. Finally, the concentration-response relationship for radioligand displacement (corrected for non-specific binding) was used to assess binding of the test compound to the receptor.

human 5HT1A receptors = biological target: T4, human 5HT1A receptors (Homo sapiens, UniProt P08908); assay: h5-HT1A receptor radioligand binding ([3H]8OH-DPAT); settings: pKi reported on a scale of 1 through 5
T4 construct: expressed in transfected cells; host or cells: Chinese hamster ovary cells (membranes)
T4 sequence (P08908 1-422): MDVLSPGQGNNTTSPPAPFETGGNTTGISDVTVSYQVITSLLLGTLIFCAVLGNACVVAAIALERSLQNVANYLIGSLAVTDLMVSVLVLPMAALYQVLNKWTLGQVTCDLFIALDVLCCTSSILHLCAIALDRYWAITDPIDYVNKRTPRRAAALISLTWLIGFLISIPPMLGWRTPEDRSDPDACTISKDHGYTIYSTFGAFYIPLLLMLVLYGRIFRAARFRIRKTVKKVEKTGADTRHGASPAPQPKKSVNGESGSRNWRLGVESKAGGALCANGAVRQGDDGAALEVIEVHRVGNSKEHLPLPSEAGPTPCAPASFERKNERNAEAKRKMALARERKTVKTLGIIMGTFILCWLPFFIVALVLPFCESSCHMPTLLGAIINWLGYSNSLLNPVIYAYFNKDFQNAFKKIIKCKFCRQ
Procedure, shortened: as §1

human 5HT2C receptors = biological target: T5, human 5HT2C receptors (Homo sapiens, UniProt P28335); assay: h5-HT2C receptor radioligand binding ([3H]Mesulergine); settings: pKi reported on a scale of 1 through 5
T5 construct: expressed in transfected cells; host or cells: human embryo kidney cells (membranes)
T5 sequence (P28335 33-458): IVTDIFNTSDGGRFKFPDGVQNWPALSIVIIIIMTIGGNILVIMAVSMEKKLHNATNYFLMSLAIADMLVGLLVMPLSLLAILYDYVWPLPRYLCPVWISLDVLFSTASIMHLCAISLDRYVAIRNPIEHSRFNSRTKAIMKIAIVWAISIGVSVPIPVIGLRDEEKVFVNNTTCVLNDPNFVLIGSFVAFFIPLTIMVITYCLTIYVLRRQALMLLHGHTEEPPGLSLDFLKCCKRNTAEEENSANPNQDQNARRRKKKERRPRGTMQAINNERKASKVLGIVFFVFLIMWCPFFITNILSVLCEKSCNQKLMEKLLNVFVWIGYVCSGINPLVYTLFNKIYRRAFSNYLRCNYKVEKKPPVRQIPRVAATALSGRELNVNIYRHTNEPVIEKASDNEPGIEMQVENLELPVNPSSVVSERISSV
Procedure, shortened: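 Test compound affinity was derived from concentration-dependent displacement of fixed [3H]mesulergine at equilibrium, after subtracting nonspecific binding measured with a reference blocker. Bound and free radioligand were separated by filtration of tissue or plasma-membrane preparations.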

human M3 receptors = biological target: T6, human M3 receptors (Homo sapiens, UniProt P20309); assay: hM3 receptor radioligand binding ([3H]NMS)
T6 construct: expressed in transfected cells; host or cells: Chinese hamster ovary cells (membranes)
T6 sequence (P20309 whole entry): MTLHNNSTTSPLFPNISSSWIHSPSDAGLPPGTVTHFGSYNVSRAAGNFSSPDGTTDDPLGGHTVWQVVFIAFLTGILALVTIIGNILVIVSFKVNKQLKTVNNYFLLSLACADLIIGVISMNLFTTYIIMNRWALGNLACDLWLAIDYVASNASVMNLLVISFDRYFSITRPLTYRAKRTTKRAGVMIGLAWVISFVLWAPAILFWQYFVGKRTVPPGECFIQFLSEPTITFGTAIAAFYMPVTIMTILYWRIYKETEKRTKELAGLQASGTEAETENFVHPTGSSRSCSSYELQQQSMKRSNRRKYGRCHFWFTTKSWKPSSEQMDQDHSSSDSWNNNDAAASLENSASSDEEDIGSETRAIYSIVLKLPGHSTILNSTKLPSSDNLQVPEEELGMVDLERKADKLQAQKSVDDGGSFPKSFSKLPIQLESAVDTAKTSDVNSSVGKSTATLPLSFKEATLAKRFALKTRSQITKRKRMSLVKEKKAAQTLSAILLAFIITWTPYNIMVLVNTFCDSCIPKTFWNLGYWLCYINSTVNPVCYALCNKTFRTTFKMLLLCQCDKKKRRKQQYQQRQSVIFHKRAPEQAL
Procedure: as §2, §3

human H1 receptors = biological target: T7, human H1 receptors (Homo sapiens, UniProt P35367); assay: hH1 receptor radioligand binding ([3H]Pyrilamine); settings: pKi reported on a scale of 1 through 5
T7 construct: expressed in transfected cells; host or cells: Chinese hamster ovary cells (membranes)
T7 sequence (P35367 whole entry): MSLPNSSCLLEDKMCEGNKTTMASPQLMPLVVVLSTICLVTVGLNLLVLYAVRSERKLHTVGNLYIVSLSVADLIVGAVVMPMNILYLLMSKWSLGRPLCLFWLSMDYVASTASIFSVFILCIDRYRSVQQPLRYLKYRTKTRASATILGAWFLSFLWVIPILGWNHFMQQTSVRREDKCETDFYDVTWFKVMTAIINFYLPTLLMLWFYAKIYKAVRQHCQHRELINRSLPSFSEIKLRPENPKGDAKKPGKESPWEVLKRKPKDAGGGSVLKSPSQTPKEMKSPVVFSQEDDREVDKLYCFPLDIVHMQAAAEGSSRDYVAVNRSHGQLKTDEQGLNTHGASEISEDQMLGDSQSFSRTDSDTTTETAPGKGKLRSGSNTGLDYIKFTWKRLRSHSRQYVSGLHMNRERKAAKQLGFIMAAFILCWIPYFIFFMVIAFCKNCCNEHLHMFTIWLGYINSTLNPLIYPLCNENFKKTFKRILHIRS
Procedure, shortened: as §1

human 5HT7 receptors = biological target: T8, human 5HT7 receptors (Homo sapiens, UniProt P34969); assay: h5-HT7 receptor radioligand binding ([3H]5-CT)
T8 construct: expressed in transfected cells; host or cells: Chinese hamster ovary cells (membranes)
T8 sequence (P34969 whole entry): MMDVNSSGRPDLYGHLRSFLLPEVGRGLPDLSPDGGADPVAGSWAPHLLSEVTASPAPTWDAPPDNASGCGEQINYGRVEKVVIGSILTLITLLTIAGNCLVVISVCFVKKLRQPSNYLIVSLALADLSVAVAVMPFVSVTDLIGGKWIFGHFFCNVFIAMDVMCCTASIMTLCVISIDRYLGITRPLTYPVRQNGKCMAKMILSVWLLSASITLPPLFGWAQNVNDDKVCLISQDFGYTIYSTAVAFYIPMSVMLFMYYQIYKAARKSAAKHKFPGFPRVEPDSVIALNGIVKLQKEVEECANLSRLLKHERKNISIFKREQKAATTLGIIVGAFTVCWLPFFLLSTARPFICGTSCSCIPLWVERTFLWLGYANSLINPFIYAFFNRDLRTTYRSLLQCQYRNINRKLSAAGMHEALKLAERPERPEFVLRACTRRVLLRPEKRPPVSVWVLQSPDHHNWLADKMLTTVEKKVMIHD
Procedure: as §2, §3

human M1 receptors = biological target: T9, human M1 receptors (Homo sapiens, UniProt P11229); assay: hM1 receptor radioligand binding ([3H]NMS); settings: pKi reported on a scale of 1 through 5
T9 construct: expressed in transfected cells; host or cells: Chinese hamster ovary cells (membranes)
T9 sequence (P11229 1-460): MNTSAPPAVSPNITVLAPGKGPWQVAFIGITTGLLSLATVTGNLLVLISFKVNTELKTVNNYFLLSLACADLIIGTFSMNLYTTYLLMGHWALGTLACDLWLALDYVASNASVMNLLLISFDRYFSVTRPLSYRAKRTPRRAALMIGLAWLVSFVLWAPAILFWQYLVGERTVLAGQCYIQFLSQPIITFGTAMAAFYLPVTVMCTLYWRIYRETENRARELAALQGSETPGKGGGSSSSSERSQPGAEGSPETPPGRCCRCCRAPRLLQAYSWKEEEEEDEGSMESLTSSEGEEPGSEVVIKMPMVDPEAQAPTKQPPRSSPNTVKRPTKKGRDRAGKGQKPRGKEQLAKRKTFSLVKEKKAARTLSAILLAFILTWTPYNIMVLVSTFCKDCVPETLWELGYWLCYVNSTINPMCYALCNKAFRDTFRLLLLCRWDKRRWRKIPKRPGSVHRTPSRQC
Procedure, shortened: as §1

[3] = read-out: 5HT2A (pKb) (converted)
[4] = pKi reported on a scale of 1 through 5, read-out: D2L (pKi) (converted)
[5] = pKi reported on a scale of 1 through 5, read-out: M3 (pKi) (converted)
[6] = pKi reported on a scale of 1 through 5, read-out: 5HT7 (pKi) (converted)

| SMILES | Kb (5-HT2A receptor; [3]) | Ki [1] | Ki [2, 4] | Ki (human 5HT1A receptors) | Ki (human 5HT2C receptors) | Ki (human M3 receptors; [5]) | Ki (human H1 receptors) | Ki (human 5HT7 receptors; [6]) | Ki (human M1 receptors) | Kb (5-HT2A receptor) | Ki [2] | Ki (human M3 receptors) | Ki (human 5HT7 receptors) | Kb (5-HT2A receptor; pKb reported on a scale of 1 through 5, read-out: 5HT2A (pKb) (converted)) |
| --- | --- | --- | --- | --- | --- | --- | --- | --- | --- | --- | --- | --- | --- | --- |
| O=C(C[C@H]1CN(C2=Nc3cc(Cl)ccc3Oc3ccccc32)CCN1)NCCO [FA, (S,E)-2-(4-(8-chlorodibenzo[b,f][1,4]oxazepin-11-yl)piperazin-2-yl)-N-(2-hydroxyethyl)acetamide] | 3.16 to 9.77 nM | 631 to 2450 nM | 631 to 2450 nM | 10 to 97.7 nM | 10 to 97.7 nM | > 10000 nM | 10 to 97.7 nM | 631 to 1550 nM | > 10000 nM |  |  |  |  |  |
| O=C(C[C@H]1CN(C2=Nc3cc(Cl)ccc3Oc3ccccc32)CCN1)NCC(O)C(F)(F)F (stereo partly drawn) [GF, 2-((S)-4-((E)-8-chlorodibenzo[b,f][1,4]oxazepin-11-yl)piperazin-2-yl)-N-(3,3,3-trifluoro-2-hydroxypropyl)acetamide] | 10 to 30.9 nM | 631 to 2450 nM | 2510 to 9770 nM | 100 to 977 nM | 10 to 97.7 nM | > 10000 nM | 10 to 97.7 nM | 631 to 1550 nM | > 10000 nM |  |  |  |  |  |
| COCCNC(=O)C[C@H]1CN(C2=Nc3cc(Cl)ccc3Oc3ccccc32)CCN1 [FC, (S,E)-2-(4-(8-chlorodibenzo[b,f][1,4]oxazepin-11-yl)piperazin-2-yl)-N-(2-methoxyethyl)acetamide] | 3.16 to 9.77 nM | 631 to 2450 nM | 631 to 2450 nM | 10 to 97.7 nM | 10 to 97.7 nM | > 10000 nM | 10 to 97.7 nM | 631 to 1550 nM | > 10000 nM |  |  |  |  |  |
| O=C(C[C@H]1CN(C2=Nc3cc(Cl)ccc3Oc3ccccc32)CCN1)O[C@@H]1CN2CCC1CC2 [DU, (S)-quinuclidin-3-yl 2-((S)-4-((E)-8-chlorodibenzo[b,f][1,4]oxazepin-11-yl)piperazin-2-yl)acetate] |  | 2510 to 9770 nM |  | 10 to 97.7 nM | 100 to 977 nM |  | 100 to 977 nM |  | 5010 to 9770 nM | > 100 nM | 2510 to 9770 nM | > 10000 nM | 3980 to 9770 nM |  |
| COC(=O)CC1CN(C2=Nc3cc(C(F)(F)F)ccc3Oc3ccccc32)CCN1 (stereo not drawn) [DQ, (E)-methyl 2-(4-(8-(trifluoromethyl)dibenzo[b,f][1,4]oxazepin-11-yl)piperazin-2-yl)acetate] |  | 2510 to 9770 nM | 2510 to 9770 nM | 100 to 977 nM | 100 to 977 nM | > 10000 nM | 1000 to 9770 nM | 3980 to 9770 nM | > 10000 nM |  |  |  |  | > 100 nM |
| COc1ccc(NC(=O)C[C@H]2CN(C3=Nc4cc(Cl)ccc4Oc4ccccc43)CCN2)cn1 [FP, (S,E)-2-(4-(8-chlorodibenzo[b,f][1,4]oxazepin-11-yl)piperazin-2-yl)-N-(6-methoxypyridin-3-yl)acetamide] | 10 to 30.9 nM | 631 to 2450 nM | 631 to 2450 nM | ≤ 9.77 nM | 10 to 97.7 nM | > 10000 nM | 10 to 97.7 nM | 1580 to 3890 nM | 5010 to 9770 nM |  |  |  |  |  |
